Laboratory results from patent US9918971B2, “Aerosol formulations of granisetron and uses thereof” (LUXENA PHARMACEUTICALS, INC., priority 2013, dated 2018).
In brackets after ≈: the same amount, converted by molar mass. Several values for one entry are separate records, joined by “and”; a condition that tells them apart may be missing. Equal values may be shown once. Read-outs that look alike come from different tables or passages of the source. Values belong to the compound of their own block, whether it stands above or below them.

Columns and labels:
[1] = Particle size distribution of spray dried granisetron fine powder by Malvern Mastersizer; details: typical particle size distribution
[2] = Solubility of granisetron in pMDI medium; assay type: physicochemical
Experimental: The solubility of granisetron was measured in a pMDI medium of HFA 134 as well as a mixture of HFA 134 and ethanol.

[3] = Particle size distribution of jet milled granisetron fine powder by Malvern Spraytec

Cumulative % on <9 μm [1]: 98.0% | D10 [1]: 1.01 μm | D50 [1]: 2.33 μm | D90 [1]: 5.34 μm
Compound: CN1C2CCCC1CC(NC(=O)c1nn(C)c3ccccc13)C2 (stereo not shown) [Spray Dried Granisetron Fine Powder, granisetron]

Solubility, single determinations ([2]; HFA 134a with Ethanol (9:1), ~24 Hours): 84.173 µg/mL and 81.496 µg/mL | Solubility ([2]; HFA 134a, 24 hours, converted with gravity 1.21 g/mL): 0.00018 % w/w | Solubility ([2]; HFA 134a, 10 days, converted with gravity 1.21 g/mL): 0.00108 % w/w | Solubility ([2]; HFA 134 and ethanol, 24 hours): 0.00706 % w/w | Solubility ([2]; HFA 134 and ethanol, 10 days): 0.00681 % w/w | solubility at 10 days ([2]; pMDI medium (HFA 134a propellant), organic solvent or mixture, HFA 134a, 10 days, read-out: Solubility, Average (RSD)): 13.1 µg/mL (≈ 42 µM) | solubility at 10 days ([2]; pMDI medium (HFA 134a propellant), organic solvent or mixture, HFA 134a, 10 days, read-out: Solubility, single determinations): 13.2 µg/mL (≈ 42.1 µM) | Solubility ([2]; pMDI medium (HFA 134a propellant), organic solvent or mixture, HFA 134a, ~24 Hours, read-out: Solubility, Average (RSD)): 2.17 µg/mL (≈ 6.95 µM) | solubility at 10 days ([2]; pMDI medium (HFA 134a with ethanol), organic solvent or mixture, HFA 134a with Ethanol (9:1), 10 days, read-out: Solubility, Average (RSD)): 82.4 µg/mL (≈ 264 µM) | solubility at 10 days ([2]; pMDI medium (HFA 134a with ethanol), organic solvent or mixture, HFA 134a with Ethanol (9:1), 10 days, read-out: Solubility, single determinations): 79.9 µg/mL (≈ 256 µM) | Solubility ([2]; pMDI medium (HFA 134a with ethanol), organic solvent or mixture, HFA 134a with Ethanol (9:1), ~24 Hours, read-out: Solubility, Average (RSD)): 85.5 µg/mL (≈ 274 µM) | Solubility ([2]; pMDI medium (HFA 134a with ethanol), organic solvent or mixture, HFA 134a with Ethanol (9:1), ~24 Hours, read-out: Solubility, single determinations): 90.8 µg/mL (≈ 291 µM)
Compound: CN1C2CCCC1CC(NC(=O)c1nn(C)c3ccccc13)C2 (stereo not shown) [granisetron]
Solubility, single determinations ([2]; HFA 134a with Ethanol (9:1), 10 days): 74.29 µg/mL and 97.99 µg/mL and 73.93 µg/mL | Solubility, single determinations ([2]; HFA 134a, 10 days): 14.84 µg/mL and 10.26 µg/mL and 11.51 µg/mL and 15.77 µg/mL

mass less than 5 μm in diameter ([3]; after fifth milling cycle): approximately 75% | D10 ([3]; milling cycle 0): 3.77 μm | D50 ([3]; milling cycle 0): 50.21 μm | D90 ([3]; milling cycle 0): 445.02 μm | D10 ([3]; milling cycle 1): 2.22 μm | D50 ([3]; milling cycle 1): 7.01 μm | D90 ([3]; milling cycle 1): 20.59 μm | D10 ([3]; milling cycle 3): 1.44 μm | D50 ([3]; milling cycle 3): 3.99 μm | D90 ([3]; milling cycle 3): 9.90 μm | D10 ([3]; milling cycle 5): 1.59 μm | D50 ([3]; milling cycle 5): 3.79 μm | D90 ([3]; milling cycle 5): 8.13 μm
Compound: CN1C2CCCC1CC(NC(=O)c1nn(C)c3ccccc13)C2.Cl (stereo not shown) [jet milled granisetron, Granisetron HCl]
